# Literature values in patent EP4674947A1, “YEAST MUTANT STRAIN WITH HIGH GLYCOLIPID PRODUCTIVITY” (KAO CORPORATION, priority 2024, dated 2025).
# Conditions: decreased from 72.8 mN/m; sophorolipid produced by Starmerella bombicola
substance,measurement,value
Sophorolipid,surface tension of water decreased to,30 mN/m
